In patent publication US20250120948A1, “Small Molecules G(alpha)I2 Inhibitors and Combination With Anticancer Drugs and Use Thereof” (Georgia Tech Research Corporation, priority 2023, published 2025):

Experiments:
[1] = Stability in human liver microsomes; format: in vitro ADME
Description: (§1) On the strength of their potency, the stability of 6, 7 and 10 was determined in human and mouse plasma and liver microsomes.

PC3 cells = assay: Transwell migration assay in PC3 prostate cancer cells; format: cell-based, human; details: for effect on PC3 cell migration: compounds tested at 0.1 to 100 μM, compared with 14; for block of SAHA-stimulated cell migration in PC3 cells / block of docetaxel-stimulated cell migration in PC3 cells: second generation inhibitors at 20 μM, simultaneous treatment; for effect of chemotherapeutic drug on cell migration in PC3 cells: drug alone
Description: (§2) In vitro transwell migration assays were conducted as described previously (Caggia et al., “Novel Role of Gialpha2 in Cell Migration: Downstream of PI3-kinase-AKT and RacI in Prostate Cancer Cells,” J Cell Physiol, 234:802-815 (2018); Caggia et al., “Small Molecule Inhibitors Targeting Galphai2 Protein Attenuate Migration of Cancer Cells,” Cancers (Basel), 12(6):1631 (2020)). Briefly, the outside of the transwell inserts (BD Biosciences, San Jose, CA) were coated with 50 μl of rat tail collagen ([…]; BD Biosciences, San Jose, CA) overnight at 4° C. The next day, 50 μl of the aforementioned rat tail collagen were added for 1 hour at room temperature into the transwell inserts, to coat the inside of the membranes. DU145, PC3 and LNCaP cells were trypsinized and suspended at the appropriate density (3×10^5 cells/insert for DU145 and PC3, and 5×10^5 cells/insert for LNCaP) in MEM or RPMI containing 0.2% BSA (Sigma-Aldrich, St. Louis, MO). Chemoattractant solution, used as positive control, was made by diluting the epidermal growth factor (EGF) (10 ng/ml) into MEM (PC3 and DU145) or RPMI (LNCaP) supplemented with 0.2% BSA. Media containing 0.2% BSA served as a control. Control and EGF solutions ([…]) were added into the wells of a 24-well plate. Aliquots of 100 μl of cell suspensions, treated with or without the different compounds at several concentrations, were loaded into the transwell inserts and the plates were incubated at 37° C. for 5 hours (DU145 and PC3) or 24 hours (LNCaP). The cells inside the transwell inserts were removed by cotton swabs, and the cleaned inserts were fixed with 350 μl of 4% paraformaldehyde (pH 7.5) for 20 minutes at room temperature. Cells that had migrated to the outside of the transwell insert membrane were stained with 3 ng/ml of DAPI solution (Thermo Fisher Scientific, Eugene, OR) and images of five non-overlapping fields were captured using Axiovert 200M, Carl Zeiss (Thornwood, NY) microscope. The number of stained nuclei were determined with automatic counting using image analysis software (ZEN 2012; Carl Zeiss). Results were expressed as migration index defined as the average number of cells per field for test substance/the average number of cells per field for the medium control.
The effects of the newly synthesized compounds on the migratory behavior of PC3 cells were investigated in transwell migration assays as inventors have done before (Caggia et al., “Small Molecule Inhibitors Targeting Galphai2 Protein Attenuate Migration of Cancer Cells,” Cancers (Basel), 12(6):1631 (2020)). Compounds were tested at a concentration range of 0.1 to 100 μM. […] To potentially obtain insight into the disparity in their Gαi inhibition activities, molecular docking was performed on the enantiomers of 6 (6-R and 6-S) and 15 (15-R and 15-S). […] This slightly weaker binding affinity may partially explain the disproportionately weaker potency of 15 relative to 6. Other molecular factors, such as those which led to the attenuated potency observed with amino- to ether-group switch in the 7/10 pair, may contribute to the reduced potency of 15. Finally, most of these compounds have no effects on the morphology of PC3 cells or viability of several cancer cells at the concentrations as high as 100 μM.

[2] = Stability in mouse liver microsomes; format: in vitro ADME
Description: as §1

LNCaP cells = assay: Transwell migration assay in LNCaP prostate cancer cells; format: cell-based, human; details: drug alone; for effect of chemotherapeutic drug on cell migration in LNCaP cells: several concentrations, 24 hours
Description: as §2
To determine the effects of HDACi on prostate cancer cell migration, migration assays were performed in androgen receptor (AR)-positive LNCaP cells using several concentrations of SAHA (0.1, 0.25, 0.5, 1, 2, 4 μM), a commercially available HDACi. […] Inventors have previously developed a very potent HDACi inhibitor (SBI-I-19), coupled with an anti-androgen, enzalutamide, which selectively targets androgen sensitive prostate cancer cells for its cytotoxic effects (Gryder et al., “Selectively Targeting Prostate Cancer with Antiandrogen Equipped Histone Deacetylase Inhibitors,” ACS Chem Biol, 8:2550-2560 (2013)). The possible effects of different concentrations of SBI-I-19 on cell migration in LNCaP cells were determined.

DU145 cells = assay: Transwell migration assay in DU145 prostate cancer cells; format: cell-based, human; details: drug alone
Description: In vitro transwell migration assays were conducted as described previously (Caggia et al., “Novel Role of Gialpha2 in Cell Migration: Downstream of PI3-kinase-AKT and RacI in Prostate Cancer Cells,” J Cell Physiol, 234:802-815 (2018); Caggia et al., “Small Molecule Inhibitors Targeting Galphai2 Protein Attenuate Migration of Cancer Cells,” Cancers (Basel), 12(6):1631 (2020)). Briefly, the outside of the transwell inserts (BD Biosciences, San Jose, CA) were coated with 50 μl of rat tail collagen ([…]; BD Biosciences, San Jose, CA) overnight at 4° C. The next day, 50 μl of the aforementioned rat tail collagen were added for 1 hour at room temperature into the transwell inserts, to coat the inside of the membranes. DU145, PC3 and LNCaP cells were trypsinized and suspended at the appropriate density (3×10^5 cells/insert for DU145 and PC3, and 5×10^5 cells/insert for LNCaP) in MEM or RPMI containing 0.2% BSA (Sigma-Aldrich, St. Louis, MO). Chemoattractant solution, used as positive control, was made by diluting the epidermal growth factor (EGF) (10 ng/ml) into MEM (PC3 and DU145) or RPMI (LNCaP) supplemented with 0.2% BSA. Media containing 0.2% BSA served as a control. Control and EGF solutions ([…]) were added into the wells of a 24-well plate. Aliquots of 100 μl of cell suspensions, treated with or without the different compounds at several concentrations, were loaded into the transwell inserts and the plates were incubated at 37° C. for 5 hours (DU145 and PC3) or 24 hours (LNCaP). […] The number of stained nuclei were determined with automatic counting using image analysis software (ZEN 2012; Carl Zeiss). Results were expressed as migration index defined as the average number of cells per field for test substance/the average number of cells per field for the medium control.
To determine whether the induction of cell migration by AR-antagonists and HDACi was limited to only AR-positive cells, the effects of anti-androgens and HDACi and docetaxel in AR-negative DU145 and PC3 cells were determined.

CC(Nc1ccc(O)cc1)c1cc2ccccc2n1C (racemic) [Compound 6, 4-((1-(1-methyl-1H-indol-2-yl)ethyl)amino)phenol]
stability in liver microsomes [1]: robustly stable in both species | block of stimulatory effects of Docetaxel on PC3 cell migration (PC3 cells; FIG. 13, concentration not given): block the stimulatory effects of Docetaxel on PC3 cell migration | effect on PC3 cell migration (PC3 cells): more effective relative to 14 | block of SAHA-stimulated cell migration in PC3 cells (PC3 cells): blocked the stimulatory effects of docetaxel and SAHA in PC3 cells | block of docetaxel-stimulated cell migration in PC3 cells (PC3 cells): blocked the stimulatory effects of docetaxel and SAHA in PC3 cells | stability in liver microsomes [2]: robustly stable in both species

CSc1ccc(NC(C)c2cc3ccccc3n2C)cc1 (racemic) [Compound 7, N-(1-(1-methyl-1H-indol-2-yl)ethyl)-4-(methylthio)aniline]
stability in liver microsomes [1]: only stable in the human microsome | block of stimulatory effects of EGF on PC3 cell migration (PC3 cells; EGF-stimulated): blocks the stimulatory effects of EFG on PC3 cell migration | effect on PC3 cell migration (PC3 cells): more effective relative to 14 | block of SAHA-stimulated cell migration in PC3 cells (PC3 cells): blocked the stimulatory effects of docetaxel and SAHA in PC3 cells | block of docetaxel-stimulated cell migration in PC3 cells (PC3 cells): blocked the stimulatory effects of docetaxel and SAHA in PC3 cells | stability in liver microsomes [2]: only stable in the human microsome

CC(Oc1ccc(S(C)(=O)=O)cc1)c1cc2ccccc2n1C (racemic) [Compound 12, 1-methyl-2-(1-(4-(methylsulfonyl)phenoxy)ethyl)-1H-indole]
effect on PC3 cell migration (PC3 cells): less effective, eliciting reduced anti-migration activities relative to the other compounds

CC(Oc1ccc(O)cc1)c1cc2ccccc2n1C (racemic) [Compound 15, 4-(1-(1-methyl-1H-indol-2-yl)ethoxy)phenol]
effect on PC3 cell migration (PC3 cells): did not inhibit the migration of PC3 cells at the maximum concentration tested

Cn1c(/C=N/c2ccc(O)cc2)cc2ccccc21 [Compound 3, (E)-4-(((1-methyl-1H-indol-2-yl)methylene)amino)phenol]
effect on PC3 cell migration (PC3 cells): concentration dependent reduction of PC3 cell migration, but less efficiently relative to 14

CSc1ccc(/N=C(\C)c2cc3ccccc3n2C)cc1 [Compound 4, (E)-1-(1-methyl-1H-indol-2-yl)-N-(4-(methylthio)phenyl)ethan-1-imine]
effect on PC3 cell migration (PC3 cells): concentration dependent reduction of PC3 cell migration, but less efficiently relative to 14

Cn1c(CNc2ccc(O)cc2)cc2ccccc21 [Compound 5, 4-(((1-methyl-1H-indol-2-yl)methyl)amino)phenol]
effect on PC3 cell migration (PC3 cells): comparable potency

CSc1ccc(OC(C)c2cc3ccccc3n2C)cc1 (stereo not drawn) [Compound 10, 1-methyl-2-(1-(4-(methylthio)phenoxy)ethyl)-1H-indole]
stability in liver microsomes [1]: only stable in the human microsome | effect on PC3 cell migration (PC3 cells): less potent compared to 7 | block of SAHA-stimulated cell migration in PC3 cells (PC3 cells): blocked the stimulatory effects of docetaxel and SAHA in PC3 cells | block of docetaxel-stimulated cell migration in PC3 cells (PC3 cells): blocked the stimulatory effects of docetaxel and SAHA in PC3 cells | stability in liver microsomes [2]: only stable in the human microsome

CC(Oc1ccc([S+](C)[O-])cc1)c1cc2ccccc2n1C (stereo not drawn) [Compound 13, 1-methyl-2-(1-(4-(methylsulfinyl)phenoxy)ethyl)-1H-indole]
effect on PC3 cell migration (PC3 cells): less effective, eliciting reduced anti-migration activities relative to the other compounds

O=C(CCCCCCC(=O)Nc1ccccc1)NO [SAHA]
effect of chemotherapeutic drug on cell migration in LNCaP cells (LNCaP cells): significant dose-dependent increase in cell migration | effect of chemotherapeutic drug on cell migration in PC3 cells (PC3 cells): induced increase in cell migration | effect of chemotherapeutic drug on cell migration in DU145 cells (DU145 cells): increased cell migration

CC1(C)C(=O)N(c2ccc(C#N)c(C(F)(F)F)c2)C(=O)N1Cc1ccc(-c2cn(CCCCC(=O)NO)nn2)cc1 [SBI-I-19]
effect of chemotherapeutic drug on cell migration in LNCaP cells (LNCaP cells): significant dose-dependent increase in cell migration | effect of chemotherapeutic drug on cell migration in DU145 cells (DU145 cells): increased cell migration

CC(O)(CS(=O)(=O)c1ccc(F)cc1)C(=O)Nc1ccc(C#N)c(C(F)(F)F)c1 (stereo not drawn) [bicalutamide]
concentration of maximum induction of cell migration in LNCaP cells (LNCaP cells): 2.5 µM

CC(=O)O[C@@]12CO[C@@H]1C[C@H](O)[C@@]1(C)C(=O)[C@H](O)C3=C(C)[C@@H](OC(=O)[C@H](O)[C@@H](NC(=O)OC(C)(C)C)c4ccccc4)C[C@@](O)([C@@H](OC(=O)c4ccccc4)[C@H]21)C3(C)C [docetaxel, reference compound]
effect of chemotherapeutic drug on cell migration in PC3 cells (PC3 cells): induced increase in cell migration

CNC(=O)c1ccc(N2C(=S)N(c3ccc(C#N)c(C(F)(F)F)c3)C(=O)C2(C)C)cc1F [enzalutamide]
concentration of maximum induction of cell migration in LNCaP cells (LNCaP cells): 2.5 µM | effect of chemotherapeutic drug on cell migration in LNCaP cells (LNCaP cells): dose-dependent increase in cell migration | effect of chemotherapeutic drug on cell migration in DU145 cells (DU145 cells): increased cell migration
